# Reference: patent US20020086278A1, “CHROMOGENIC MEDIA CONTAINING BLOOD OR HEMIN” (priority 1999, published 2002)
# Where two headings read alike, the source gives them in different places.
# What was measured:
# Assay type in all cases: cell-based
# [1] = test system: Aeromonas hydrophilia (aehy); experiment: Example 3: colony color on chromogenic TSA II with 5% sheep blood (chromogen in medium); conditions: for Colony Color: CO2, 21 h
# [2] = test system: Branhamella catarrhalis (brca); experiment: as above; conditions: for Colony Color: CO2, 21 h
# [3] = test system: Candida albicans (caal); experiment: as above; conditions: for Colony Color: caal 10231, 24 h
# [4] = test system: Citrobacter freundii (cifr); experiment: as above
# [5] = test system: Entercoccus faecalis (enfa); experiment: as above
# [6] = test system: E. faecium (enfu); experiment: as above; conditions: for Colony Color: enfu 49032, 21 h
# [7] = test system: E. coli (non-O157) (esco)
# [8] = test system: Klebsiella pneumoniae (klpn); experiment: Example 3: colony color on chromogenic TSA II with 5% sheep blood (chromogen in medium)
# [9] = test system: Pseudomonas aeruginosa (psae); experiment: as above; conditions: for Colony Color: CO2, 21 h
# [10] = test system: Salmonella spp. (sasp); conditions: for Colony Color: CO2, 21 h
# [11] = test system: Serratia marcescens (sema); experiment: Example 3: colony color on chromogenic TSA II with 5% sheep blood (chromogen in medium)
# [12] = test system: Streptococcus agalactiae (stag); experiment: as above
# [13] = test system: Staphylococcus aureus (stau); experiment: as above
# [14] = test system: Staphylococcus Coag Neg (step); experiment: as above; conditions: for Colony Color: 21 h
# [15] = test system: S. milleri (stmi); experiment: as above
# [16] = test system: S. pneumoniae (stpn); experiment: as above
# [17] = test system: S pyogenes (stpy); experiment: as above; conditions: for Colony Color: 21 h
# [18] = test system: 55 strains; experiment: Example 3: color, hemolytic activity and growth over all 55 strains; conditions: chromogenic TSA II
# From the text: Steers, E. et al., Antibiot.
# [19] = test system: cakr 34135; experiment: Example 3: colony color on chromogenic TSA II with 5% sheep blood (chromogen in medium); conditions: CO2, 21 h
# [20] = test system: milu 9341; experiment: as above; conditions: CO2, 21 h
# [21] = chromogenic TSA II with 5% Sheep Blood, 0.1 g/l, 3 strains tested
# [22] = chromogenic TSA II with 5% Sheep Blood, 0.1 g/l, 2 strains tested
# [23] = chromogenic TSA II with 5% Sheep Blood, 0.1 g/l, 6 strains tested
# [24] = chromogenic TSA II with 5% Sheep Blood, 0.1 g/l, 1 strain tested
# [25] = chromogenic TSA II with 5% Sheep Blood, 0.1 g/l, 5 strains tested
structure (smiles),measurement,setting,value
"O=S(=O)([O-])Oc1c[nH]c2ccc(Br)c(Cl)c12.[K+] [X-Sulf, 5-Br-4-Cl-3-indolyl-sulfate (Potassium salt)]",Colony Color,[1]; aehy 7965,0
same,Colony Color,[1]; aehy 7966,0
same,Colony Color,[1]; aehy 49847,0
same,Colony Color (Summary),[1]; [21],0
same,Colony Color,[2]; brca 25238,0
same,Colony Color,[2]; brca 25240,0
same,Colony Color (Summary),[2]; [22],0
same,Colony Color,[3]; CO2,0
same,Colony Color,[3]; air,0
same,Colony Color (Summary),[3]; [22],0
same,Colony Color,[4]; One strain of Citrobacter,grey blue
same,Colony Color (Summary),[4]; [22],+
same,Colony Color,"[4]; cifr 8454, CO2, 21 h",0
same,Colony Color,"[4]; cifr 33128, CO2, 21 h",gb
same,Colony Color (Summary),[5]; [23],0
same,Colony Color,"[5]; enfa 597, CO2, 21 h",0
same,Colony Color,"[5]; enfa 597, air, 21 h",0
same,Colony Color,"[5]; enfa 10741, CO2, 21 h",0
same,Colony Color,"[5]; enfa 10741, air, 21 h",0
same,Colony Color,"[5]; enfa 12953, CO2, 21 h",0
same,Colony Color,"[5]; enfa 12953, air, 21 h",0
same,Colony Color,"[5]; enfa 14506, CO2, 21 h",0
same,Colony Color,"[5]; enfa 14506, air, 21 h",0
same,Colony Color,"[5]; enfa 29212, CO2, 21 h",0
same,Colony Color,"[5]; enfa 29212, CO2, 24 h",0
same,Colony Color,"[5]; enfa 29212, air, 21 h",0
same,Colony Color,"[5]; enfa 29212, air, 24 h",0
same,Colony Color (Summary),[6]; [24],0
same,Colony Color,[6]; CO2,0
same,Colony Color,[6]; air,0
same,Colony Color (Summary),[7]; [21],0
same,Colony Color,"[7]; esco 11775, CO2, 21 h",0
same,Colony Color,"[7]; esco 25922, CO2, 24 h",0
same,Colony Color,"[7]; esco 25922, air, 24 h",0
same,Colony Color,"[7]; esco 33605, CO2, 21 h",0
same,Colony Color (Summary),[8]; [21],0
same,Colony Color,"[8]; klpn 13883, CO2, 21 h",0
same,Colony Color,"[8]; klpn 33495, CO2, 24 h",0
same,Colony Color,"[8]; klpn 33495, air, 24 h",0
same,Colony Color,"[8]; klpn 33606, CO2, 21 h",0
same,Colony Color (Summary),[9]; [21],0
same,Colony Color,[9]; psae 9027,0
same,Colony Color,[9]; psae 15442,0
same,Colony Color,[9]; psae 33607,0
same,Colony Color (Summary),[10]; [22],0
same,Colony Color,[10]; saty 19430,0
same,Colony Color,[10]; satym 14028,0
same,Colony Color (Summary),[11]; [24],0
same,Colony Color,"[11]; sema 13880, CO2, 21 h",0
same,Colony Color (Summary),[12]; [21],0
same,Colony Color,"[12]; stag 4768, CO2, 21 h",0
same,Colony Color,"[12]; stag 4768, air, 21 h",0
same,Colony Color,"[12]; stag 12386, CO2, 21 h",0
same,Colony Color,"[12]; stag 12386, CO2, 24 h",0
same,Colony Color,"[12]; stag 12386, air, 24 h",0
same,Colony Color (Summary),[13]; [25],0
same,Colony Color,"[13]; stau 1006, CO2, 21 h",0
same,Colony Color,"[13]; stau 1007, CO2, 21 h",0
same,Colony Color,"[13]; stau 1008, CO2, 21 h",0
same,Colony Color,"[13]; stau 1009, CO2, 21 h",0
same,Colony Color,"[13]; stau 25923, CO2, 24 h",0
same,Colony Color,"[13]; stau 25923, air, 24 h",0
same,Colony Color (Summary),[14]; [25],0
same,Colony Color,"[14]; step 12228, CO2",0
same,Colony Color,"[14]; step 12228, air",0
same,Colony Color,"[14]; step cdc1, CO2",0
same,Colony Color,"[14]; step cdc1, air",0
same,Colony Color,"[14]; step cdc2, CO2",0
same,Colony Color,"[14]; step cdc2, air",0
same,Colony Color,"[14]; step cdc3, CO2",0
same,Colony Color,"[14]; step cdc3, air",0
same,Colony Color,"[14]; step cdc4, CO2",0
same,Colony Color,"[14]; step cdc4, air",0
same,Colony Color (Summary),[15]; [22],0
same,Colony Color,"[15]; stmi 6249, air, 21 h",0
same,Colony Color (Summary),[16]; [23],0
same,Colony Color,"[16]; stpn 1259, CO2, 21 h",0
same,Colony Color,"[16]; stpn 1260, CO2, 21 h",0
same,Colony Color,"[16]; stpn 1628, CO2, 21 h",0
same,Colony Color,"[16]; stpn 6303, CO2, 24 h",0
same,Colony Color,"[16]; stpn 6303, air, 24 h",0
same,Colony Color,"[16]; stpn 6305, CO2, 24 h",0
same,Colony Color,"[16]; stpn 6305, air, 24 h",0
same,Colony Color (Summary),[17]; [23],0
same,Colony Color,"[17]; stpy 1027, CO2",0
same,Colony Color,"[17]; stpy 1028, CO2",0
same,Colony Color,"[17]; stpy 1029, CO2",0
same,Colony Color,"[17]; stpy 1030, CO2",0
same,Colony Color,"[17]; stpy 19615, CO2",0
same,Colony Color,"[17]; stpy 19615, air",0
same,Colony Color,"[17]; stpy 49117, CO2",0
same,Colony Color,"[17]; stpy 49117, air",0
same,Colony Color,"[17]; stpy 51339, CO2",0
same,Colony Color,"[17]; stpy 51339, air",0
same,Activity (color) for most organisms,[18],inactive
same,Colony Color,[19],0
same,Colony Color,[20],0
